Legend:
[1] = test system: DSS-induced enteritis model; experiment: Effects of single herbal extracts in DSS-induced enteritis model (Example 2); type: in vivo, mice (C57BL/6); conditions: 5-ASA 25 mg/kg orally once/day for 14 days; 2.5% DSS 5 days
Method: After 8-week-old male mice (C57BL/6) were acclimated for one week or longer, the mice were classified into: a normal group; a DSS and distilled water administration group in which Dextran Sulfate Sodium (DSS; 36,000-50,000 MW, MP Biomedicals, USA) was administered to induce ulcerative colitis and then distilled water was administered (negative control); a DSS and 5-aminosalicylic acid (5-ASA; Tokyo Chemical Industry Co., Japan) administration group (positive control group); and groups in which DSS and respective single herbal extracts prepared in Example 1 were administered (experimental groups).
(§1) The DSS-induced enteritis model has been known to show similar morphological changes and symptoms to human ulcerative colitis. The mice were fed 100 mL of DSS diluted in drinking water to 2.5%, which was then changed every two days. After the induction by DSS for 5 days, drinking water was changed.
(§2) 5-ASA, used as a drug for the positive control group, was diluted in drinking water to 25 mg/kg, and administered orally once/day for 14 days from the start date of the experiment. Each single herbal extract was orally administered at a dose of 100 mg/kg once/day for 14 days from the start date of the experiment.
The mice of each group were weighed to calculate weight loss rates, and the feces state and the presence of bloody feces were checked, every day after the start of the experiment. Scoring was conducted for the three indicators according to the standards in Table 2 below.
Disease activity index (DAI), which is the sum calculated according to the scoring standards on Table 2 above, is shown in Table 3 below and FIG. 1.
On the last day of the experiment, the mice were sacrificed with carbon dioxide gas, and the colon site was excised. The colon length was measured from the excised colon, and then the state of the intestinal mucosa was investigated by incision in the longitudinal direction.
The histological colitis score was calculated by measuring the lengths of the mucosal ulcer site and the damaged mucosal layer in the colon tissue and averaging the values.

IL-23 = experiment: Quantitative PCR of IL-23 expression in colon of DSS-induced colitis mice (Example 6); type: in vivo, mouse; conditions: relative value vs normal group, GAPDH standard; colon RNA; 5-ASA 25 mg/kg orally
Method: (§3) RNA was isolated from the colon of the mice collected in Example 5 by using TRIzol (Invitrogen, USA). Thereafter, quantitative PCR through primers specific to the inflammatory factors TNF-α, IL-1β, IL-17, IL-23, CCL2, and MIP-2, and SYBR green (Takara, Japan) was performed using cDNA obtained by performing RT-PCR. The expression levels of RNA obtained therefrom were expressed as a relative change compared with the untreated group (normal group) by using GAPDH mRNA as the standard gene. The experimental results are shown in Tables 11 to 16 below and FIGS. 8 to 13.

DSS-induced colitis mice [2] = experiment: Comparison of single extracts and mixed extracts in DSS-induced colitis mice (Example 5); type: in vivo, mice (C57BL/6); conditions: 5-ASA 25 mg/kg orally; 2.5% DSS 5 days
Method: After 8-week-old male mice (C57BL/6) were acclimated for one week or longer, the mice were classified into: a normal group; a DSS administration group, a DSS and distilled water administration group (negative control); a DSS and 5-ASA administration group (positive control group); and a group administered DSS and Coptis Rhizome 100 mg/kg, a group administered DSS and Schizonepeta tenuifolia Briquet 10 mg/kg, and a group administered DSS, Coptis Rhizome 100 mg/kg, and Schizonepeta tenuifolia Briquet 10 mg/kg (mixed extract administration group). The mice were fed 100 mL of DSS diluted in drinking water to 2.5%, which was then changed every two days. After DSS administration for 5 days, drinking water was changed. 5-ASA, used as a drug for the positive control group, was diluted in drinking water to 25 mg/kg, and orally administered. Coptis Rhizome 100 mg/kg, Schizonepeta tenuifolia Briquet 10 mg/kg, and a 10:1 mixture of Coptis Rhizome and Schizonepeta tenuifolia Briquet at a dose of 110 mg/kg were orally administered once/day for 14 days, and the body weight change rate, feces state, and the presence of bloody feces were checked every day.

IL-1β = experiment: Quantitative PCR of IL-1β expression in colon of DSS-induced colitis mice (Example 6); type: in vivo, mouse; conditions: relative value vs normal group, GAPDH standard; colon RNA; 5-ASA 25 mg/kg orally
Method: as §3

[3] = test system: DSS-induced enteritis model; experiment: Effects of single and mixed herbal extracts on DSS-induced enteritis model (Example 11); type: in vivo, mice (C57BL/6); conditions: 5-ASA 25 mg/kg orally once/day for 10 days; 2.5% DSS 5 days
Method: After 8-week-old male mice (C57BL/6) were acclimated for one week or longer, the mice were classified into: a normal group;
a DSS and distilled water administration group in which Dextran Sulfate Sodium (DSS; 36,000-50,000 MW, MP Biomedicals, USA) was administered to induce ulcerative colitis and then distilled water was administered (negative control); a DSS and 5-aminosalicylic acid (5-ASA; Tokyo Chemical Industry Co., Japan) administration group (positive control group); and groups in which together with DSS, Coptis Rhizome and Schizonepeta tenuifolia Briquet extracts prepared in Example 1 and mixed herbal extracts prepared in Example 7 were administered (experimental groups).
as §1
as §2, with “10” for “14”, “mixed” for “single”, “50” for “100”
The mice of each group were weighed to calculate weight loss rates every day after the start of the experiment.
In addition, DAI scores were calculated based on the results of the body weight change, feces state, and the presence of bloody feces, and the results are shown in Table 23 below and FIG. 17.
On the last day of the experiment, the mice were sacrificed with carbon dioxide gas, and the colon site was excised.

TNF-α = experiment: Quantitative PCR of TNF-α expression in colon of DSS-induced colitis mice (Example 6); type: in vivo, mouse; conditions: relative value vs normal group, GAPDH standard; colon RNA; 5-ASA 25 mg/kg orally
Method: as §3

CCL2 = experiment: Quantitative PCR of CCL2 expression in colon of DSS-induced colitis mice (Example 6); type: in vivo, mouse; conditions: relative value vs normal group, GAPDH standard; colon RNA; 5-ASA 25 mg/kg orally
Method: as §3

MIP-2 = experiment: Quantitative PCR of MIP-2 expression in colon of DSS-induced colitis mice (Example 6); type: in vivo, mouse; conditions: relative value vs normal group, GAPDH standard; colon RNA; 5-ASA 25 mg/kg orally
Method: as §3

[4] = test system: DNBS-induced enteritis model; experiment: Effects of single herbal extracts on DNBS-induced enteritis model (Example 3); type: in vivo, mice (C57BL/6); conditions: 5-ASA 25 mg/kg orally once/day for 5 days; DNBS rectal
Method: After 8-week-old male mice (C57BL/6) were acclimated for one week or longer, the mice were classified into: a normal group; a DNBS and distilled water administration group in which dinitrobenzene sulfonic acid (DNBS; Sigma-Aldrich, USA) was administered to induce inflammatory bowel disease and then distilled water was administered (negative control); a DNBS and 5-ASA administration group (positive control group); and groups in which DNBS and extracts of 11 kinds of herbs (Terminaliae Fructus, Selaginellae Herba, Schizonepeta tenuifolia Briquet, Geranii Herba, Psoraleae Semen, Thujae Orientalis Folium, Coptis Rhizome, Galla Rhois, Ailanthi Radicis Cortex, Puerariae Radix, and Liriopis Tuber) selected in Example 2 (experimental groups).
The DNBS-induced enteritis model is known to be closely related with human Crohn's disease in that T cell-mediated immune response is induced. DNBS in 50% ethanol/distilled water at 40 mg/mL was prepared, and 0.1 mL was slowly injected into the rectum of the mouse by using a catheter. 5-ASA, used as a drug for the positive control group, was diluted in drinking water to 25 mg/kg, and administered orally once/day for 5 days from the start date of the experiment. […]
On the last day of the experiment, the mice were sacrificed with carbon dioxide gas, and the colon site was excised, and the colon length was measured.

IL-17 = experiment: Quantitative PCR of IL-17 expression in colon of DSS-induced colitis mice (Example 6); type: in vivo, mouse; conditions: relative value vs normal group, GAPDH standard; colon RNA; 5-ASA 25 mg/kg orally
Method: as §3

DSS-induced colitis mice [5] = experiment: Effects of single herbal extracts with different concentration in DSS-induced colitis mice (Example 4); type: in vivo, mice (C57BL/6); conditions: 5-ASA 25 mg/kg orally; 2.5% DSS 6 days
Method: After 8-week-old male mice (C57BL/6) were acclimated for one week or longer, the mice were classified into: a normal group; a DSS and distilled water administration group (negative control); a DSS and 5-ASA administration group (positive control group); and groups in which DSS and extracts of four kinds of herbs (Coptis Rhizome, […] Herba, Schizonepeta tenuifolia Briquet, and […] Herba) selected in Example 1 (experimental groups). The mice were fed 100 mL of DSS diluted in drinking water to 2.5%, which was then changed every two days. To evaluate the effects of single herbal extracts with different concentrations, DSS was administered for a total of 6 days, and then drinking water was changed. 5-ASA was distilled in drinking water to 25 mg/kg and orally administered. Each single herbal extract was orally administered at doses of 10, 30, and 100 mg/kg once/day for 14 days from the start date of the experiment, and the body weight change, feces state, and the presence of bloody feces were checked every day. In addition, DAI scores were calculated based on the results of the body weight change, feces state, and the presence of bloody feces, and the results are shown in Table 9 below and FIG. 6.

Nc1ccc(O)c(C(=O)O)c1 [Positive control, 5-aminosalicylic acid]
Colon length (cm) [1]: 5.6 cm | DAI score of Day 10 [1]: 2.4 | Histological colitis score [1]: 1.00 | IL-23 expression level (IL-23): 1.65 | DAI score of Day 10 (DSS-induced colitis mice [2]): 2.8 | IL-1β expression level (IL-1β): 2.28 | Body weight change rate for 10 days (%) [3]: −11.66% | Colon length (cm) [3]: 7.04 cm | DAI score of DAY 10 [3]: 4.8 | TNF-α expression level (TNF-α): 2.16 | CCL2 expression level (CCL2): 3.26 | MIP-2 expression level (MIP-2): 1.86 | Colon length (cm) [4]: 7.10 cm | Survival rate (%) [4]: 60% | IL-17 expression level (IL-17): 1.77 | Body weight change rate for 14 days (%) (DSS-induced colitis mice [5]): −19.38% | DAI score of Day 10 (DSS-induced colitis mice [5]): 4.8
